Here are results for four compounds from US6156899A, “N-aryl-2-hydroxyalkylamido compositions for inducing/stimulating hair growth and/or retarding hair loss and/or for treating hyperseborrhea and/or acne” (Societe L'Oreal S.A., priority 1997, dated 2000).

Assay [1] deals with rings of the thoracic region of the aorta (aortic smooth muscles). Put plainly: Potassium channel opener activity: in vitro relaxant power on rings of the thoracic region of the aorta contracted with KCl. The settings on record: for mixed activity (potassium channel opener/antiandrogen): conclusion from Tables I and II; for IC50: read-out: Inhibition contraction isolated aorta induced by K+: IC50. It is filed as cell-based. Here is the method:
Measurement of the Activity of "Potassium Channel Opener" Type of the Ethyl Ester of (4-Cyano-3-(trifluoromethyl)phenyl)(3,3,3-trifluoro-2-hydroxy-2-methylpropionyl)carbamic Acid (Example 1) and of (4-cyano-3-(trifluoromethyl)phenyl)(3,3,3-trifluoro-2-hydroxy-2-methylpropionyl)carbamic Acid (Example 2) by the in Vitro Measurement of the Relaxant Power of the Molecules on Rings of the Thoracic Region of the Aorta (IC50):
The experiments were carried out according to the techniques of Newgreen et al. (Br. J. Pharmacol., 100, p. 605-613 (1990)), Bray et al. (Arch. Pharmacol., 344, p. 351-359 (1991)) and Wickerden et al. (Br. J. Pharmacol., 103, 1148-1152 (1991)).
After they had been mounted into the isolated organ vessels, the tissues (aortic smooth muscles) were subjected to an initial tension of 2 g.
After an equilibration period, the tissues were exposed to a potassium chloride solution (20 mM KCl), in order to obtain a sustained contractile response.
After stabilization of this contractile response, the relaxant activity (of potassium channel opener type) of the test molecules was evaluated as a function of the concentration applied.
During the experimentation, two reference molecules were employed: cromakalim and minoxidil.

The target of a further assay is T1, androgen receptor (Rattus norvegicus, UniProt P15207).
T1 sequence (P15207 1-902): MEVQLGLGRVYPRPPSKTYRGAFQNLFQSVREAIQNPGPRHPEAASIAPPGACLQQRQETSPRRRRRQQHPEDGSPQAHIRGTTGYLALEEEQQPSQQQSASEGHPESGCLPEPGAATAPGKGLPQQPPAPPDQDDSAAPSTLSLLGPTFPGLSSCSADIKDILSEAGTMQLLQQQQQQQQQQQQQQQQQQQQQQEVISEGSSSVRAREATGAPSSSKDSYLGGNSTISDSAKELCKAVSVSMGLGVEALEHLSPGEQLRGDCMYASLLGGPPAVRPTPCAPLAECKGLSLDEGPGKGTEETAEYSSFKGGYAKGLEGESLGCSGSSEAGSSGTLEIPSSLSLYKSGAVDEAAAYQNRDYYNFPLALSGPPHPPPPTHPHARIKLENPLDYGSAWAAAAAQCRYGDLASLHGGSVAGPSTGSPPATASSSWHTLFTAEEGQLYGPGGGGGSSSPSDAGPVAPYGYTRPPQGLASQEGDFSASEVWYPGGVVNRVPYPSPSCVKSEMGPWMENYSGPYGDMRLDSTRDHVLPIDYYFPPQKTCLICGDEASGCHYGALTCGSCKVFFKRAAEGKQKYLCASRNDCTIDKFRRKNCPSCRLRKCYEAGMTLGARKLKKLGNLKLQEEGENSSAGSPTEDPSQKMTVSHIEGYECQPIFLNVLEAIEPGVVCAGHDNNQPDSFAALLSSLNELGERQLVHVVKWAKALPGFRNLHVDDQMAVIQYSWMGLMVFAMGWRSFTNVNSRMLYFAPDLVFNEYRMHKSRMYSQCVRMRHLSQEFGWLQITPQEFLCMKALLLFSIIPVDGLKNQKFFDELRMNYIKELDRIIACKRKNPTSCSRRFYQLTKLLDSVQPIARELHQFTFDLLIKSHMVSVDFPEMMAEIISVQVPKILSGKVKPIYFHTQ
Put plainly: Affinity (IC50) for the androgen receptor: inhibition of the binding of testosterone (Schilling and Liao technique). Here is the method:
Measurement of the Affinity (IC50) of the Ethyl Ester of (4-Cyano-3-(trifluoromethyl)phenyl)(3,3,3-trifluoro-2-hydroxy-2-methylpropionyl)carbamic Acid (Example 1) and of (4-Cyano-3-(trifluoromethyl)phenyl)(3,3,3-trifluoro-2-hydroxy-2-methylpropionyl)carbamic Acid (Example 2) for the Androgen Receptor:
These measurements of receptor affinity for the androgen receptor were carried out according to the technique of Schilling and Liao, described in The Prostate, 5, p. 581-588 (1984).
During the experimentation, the reference molecule (mibolerone) was tested in parallel at 8 concentrations, in order to validate the experiment.

Setting [2] is: 20 mM KCl, thoracic aorta rings, initial tension 2 g.

Like-named read-outs stand apart in the source and are kept apart here.

As to `CCOC(=O)N(C(=O)C(C)(O)C(F)(F)F)c1ccc(C#N)c(C(F)(F)F)c1` (centres unmarked) [Example 1, Ethyl Ester of (4-Cyano-3-(trifluoromethyl)phenyl)(3,3,3-trifluoro-2-hydroxy-2-methylpropionyl)carbamic Acid], in assay [1], the “mixed activity (potassium channel opener/antiandrogen)” value is “mixed activity” and the IC50 was found to be 2000 nM. Also, the IC50 on androgen receptor is 2000 nM.

Turning to `CC(O)(C(=O)N(C(=O)O)c1ccc(C#N)c(C(F)(F)F)c1)C(F)(F)F` (centres unmarked) [Example 2, (4-Cyano-3-(trifluoromethyl)phenyl)(3,3,3-trifluoro-2-hydroxy-2-methylpropionyl)carbamic Acid], in assay [1], the “mixed activity (potassium channel opener/antiandrogen)” value is “mixed activity” and the IC50 stood at 3000 nM. Also, the IC50 on androgen receptor was 4000 nM.

In the case of `CC1(C)Oc2ccc(C#N)cc2C(N2CCCC2=O)C1O` (centres unmarked) [cromakalim, reference compound], in assay [1] (setting [2]), the IC50 was approximately 1000 nM.

Consider `Nc1cc(N2CCCCC2)nc(N)[n+]1[O-]` [minoxidil, 2,4-diamino-6-piperidinopyrimidine 3-oxide, reference compound], for which the IC50 in assay [1] (setting [2]) was approximately 1000 nM.

Usually IC50 stands for the concentration needed to halve the response being measured.
